Data: US20230114728A1 (Venatorx Pharmaceuticals, Inc., priority 2019, published 2023)
Converted amounts (≈) assume the structure as drawn.

What was measured:
A. baumannii PBP1a = A. baumannii PBP1a (Acinetobacter baumannii, UniProt A0ABX6CK30); assay: Bocillin-FL fluorescence polarization competition binding assay, A. baumannii PBP1a; settings: fluorescence polarization competition binding assay using Bocillin-FL; column 1; read-out: A. baumannii PBP1a Potency
[1] = test system: A. baumannii IL123 (ABΔ3-ARAEcPore); assay: Broth microdilution MIC in iron-depleted CAMHB (IDM); type: cell-based; settings: Acinetobacter baumannii, read-out: Minimum Inhibitory Concentration, IL-2123
Outline: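 Colonies grow 3-5 h in iron-depleted broth at 37° C, are adjusted by OD600 to give 2-8×10^5 CFU/mL, and are added to 2-fold serial compound dilutions. After 16-20 h (Pseudomonas) or 20-24 h (Acinetobacter) at 37° C, the lowest concentration with no visible growth is the MIC.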

Chain of A. baumannii PBP1a (A0ABX6CK30 entry or part of it): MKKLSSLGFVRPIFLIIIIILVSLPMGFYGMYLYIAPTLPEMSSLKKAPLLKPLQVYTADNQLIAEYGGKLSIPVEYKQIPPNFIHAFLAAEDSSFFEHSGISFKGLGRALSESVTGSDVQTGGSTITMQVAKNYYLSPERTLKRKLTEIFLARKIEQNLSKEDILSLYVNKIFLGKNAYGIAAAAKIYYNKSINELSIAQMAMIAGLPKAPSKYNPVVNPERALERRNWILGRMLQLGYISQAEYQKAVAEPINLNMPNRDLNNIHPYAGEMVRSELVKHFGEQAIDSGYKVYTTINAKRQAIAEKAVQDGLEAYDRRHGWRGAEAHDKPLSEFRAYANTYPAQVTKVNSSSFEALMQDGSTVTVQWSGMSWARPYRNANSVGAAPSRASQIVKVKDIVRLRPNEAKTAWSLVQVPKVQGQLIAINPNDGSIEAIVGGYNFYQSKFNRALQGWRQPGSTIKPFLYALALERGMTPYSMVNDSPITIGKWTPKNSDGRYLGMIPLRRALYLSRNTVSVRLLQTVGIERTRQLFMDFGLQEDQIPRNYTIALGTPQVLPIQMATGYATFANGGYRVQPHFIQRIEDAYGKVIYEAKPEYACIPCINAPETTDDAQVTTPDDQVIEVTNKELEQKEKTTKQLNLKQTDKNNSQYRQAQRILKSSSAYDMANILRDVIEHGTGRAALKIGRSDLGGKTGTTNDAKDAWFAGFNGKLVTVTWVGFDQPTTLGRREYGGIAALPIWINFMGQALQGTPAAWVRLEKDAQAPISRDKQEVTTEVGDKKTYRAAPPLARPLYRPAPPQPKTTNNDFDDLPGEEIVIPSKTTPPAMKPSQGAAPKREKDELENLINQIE

`O=C(NCCN1CCN(C(=O)NC(C(=O)N[C@H]2Cc3ccc(F)c(C(=O)O)c3OB2O)c2ncc(O)cc2F)C(=O)C1=O)c1c(F)cc(O)c(O)c1Cl` (stereo partly drawn) [Example 5, (3R)-3-(2-(4-(2-(2-chloro-6-fluoro-3,4-dihydroxybenzamido)ethyl)-2,3-dioxopiperazine-1-carboxamido)-2-(3-fluoro-5-hydroxypyridin-2-yl)acetamido)-7-fluoro-2-hydroxy-3,4-dihydro-2H-benzo[e][1,2]oxaborinine-8-carboxylic acid] gave an EC50 (A. baumannii PBP1a) of 10 to 30 µM and an MIC [1] of 2 to 4 µg/mL (≈ 2.61 to 5.23 µM).
